Measurements taken from ChEMBL document CHEMBL1122859, “Novel vasopressin analogues that help define a minimum effective antagonist pharmacophore” (J Med Chem, 1985).
Numbered stars: 1 amine (or outer) side, 2 acyl side, 3 side chain; on linkers, the order of the positions; unused ones are H or OH. Bridge positions count the residues as written; N and C are the ends. Square brackets hold non-standard residues; d marks the D form. Peptide text beside a SMILES is read from it. * marks the point of attachment. X1 = O=C(CC1(S[*:2])CCCCC1)[*:1]; NH(CH2)5NH2 = NCCCCCN*

Key:
Vasopressin V2 receptor [1] = molecular target: T1, Vasopressin V2 receptor (Sus scrofa, UniProt P32307); experiment: Tested for inhibition of vasopressin-stimulated adenylate cyclase of medullary membranes of pig kidney.
T1 sequence (P32307 whole entry): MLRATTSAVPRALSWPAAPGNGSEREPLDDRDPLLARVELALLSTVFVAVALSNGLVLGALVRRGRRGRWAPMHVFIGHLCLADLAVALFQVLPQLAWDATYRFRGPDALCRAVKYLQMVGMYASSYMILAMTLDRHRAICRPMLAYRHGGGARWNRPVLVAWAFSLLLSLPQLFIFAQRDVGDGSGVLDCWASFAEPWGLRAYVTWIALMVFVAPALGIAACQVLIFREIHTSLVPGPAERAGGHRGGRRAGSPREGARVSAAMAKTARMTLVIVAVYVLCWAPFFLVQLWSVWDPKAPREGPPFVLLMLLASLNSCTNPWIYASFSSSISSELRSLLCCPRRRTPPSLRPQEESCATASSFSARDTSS

Vasopressin V2 receptor [2] = molecular target: T1, Vasopressin V2 receptor; experiment: Tested for inhibition of [3H]LVP binding to vasopressin receptor in medullary membranes of pig kidney.; type: cell membranes
Rattus norvegicus = experiment: Dose required to lower urine osmolality to 300 mOsm/kg in rat.; type: functional

CCOc1ccc(C[C@H]2NC(=O)CC3(CCCCC3)SSC[C@@H](C(=O)N3CCC[C@H]3C(=O)N[C@@H](CCCCN)C(N)=O)NC(=O)[C@H](CC(N)=O)NC(=O)[C@H](C(C)C)NC(=O)[C@H](Cc3ccccc3)NC2=O)cc1 [listing 1 of 2 here]
Ki (Vasopressin V2 receptor [1]): 9.4 nM
Ki (Vasopressin V2 receptor [2]): 37 nM

CCOc1ccc(C[C@H]2NC(=O)CC3(CCCCC3)SSC[C@@H](C(=O)N3CCC[C@H]3C(=O)N[C@@H](CCCCN)C(N)=O)NC(=O)[C@H](CC(N)=O)NC(=O)[C@H](C(C)C)NC(=O)[C@H](Cc3ccccc3)NC2=O)cc1 [listing 2 of 2 here]
ED300 (Rattus norvegicus): 0.022 mg/kg

CCOc1ccc(C[C@H]2NC(=O)CC3(CCCCC3)SSC[C@@H](C(=O)NCCCCCN)NC(=O)[C@H](CC(N)=O)NC(=O)[C@H](C(C)C)NC(=O)[C@H](Cc3ccccc3)NC2=O)cc1 [listing 1 of 2 here]
Ki (Vasopressin V2 receptor [1]): 6.8 nM
Ki (Vasopressin V2 receptor [2]): 19 nM

CCOc1ccc(C[C@H]2NC(=O)CC3(CCCCC3)SSC[C@@H](C(=O)NCCCCCN)NC(=O)[C@H](CC(N)=O)NC(=O)[C@H](C(C)C)NC(=O)[C@H](Cc3ccccc3)NC2=O)cc1 [listing 2 of 2 here]
ED300 (Rattus norvegicus): 0.094 mg/kg

CCOc1ccc(C[C@H]2NC(=O)CC3(CCCCC3)SSC[C@@H](C(=O)N[C@@H](CCCCN)C(N)=O)NC(=O)[C@H](CC(N)=O)NC(=O)[C@H](C(C)C)NC(=O)[C@H](Cc3ccccc3)NC2=O)cc1 [listing 1 of 2 here]
Ki (Vasopressin V2 receptor [1]): 5.8 nM
Ki (Vasopressin V2 receptor [2]): 26 nM

CCOc1ccc(C[C@H]2NC(=O)CC3(CCCCC3)SSC[C@@H](C(=O)N[C@@H](CCCCN)C(N)=O)NC(=O)[C@H](CC(N)=O)NC(=O)[C@H](C(C)C)NC(=O)[C@H](Cc3ccccc3)NC2=O)cc1 [listing 2 of 2 here]
ED300 (Rattus norvegicus): 0.059 mg/kg

CCOc1ccc(C[C@H]2NC(=O)CC3(CCCCC3)SSC[C@@H](C(=O)N3CCC[C@H]3C(=O)NCCCCCN)NC(=O)[C@H](CC(N)=O)NC(=O)[C@H](C(C)C)NC(=O)[C@H](Cc3ccccc3)NC2=O)cc1 ([dY](Et)FVNCP-{NH(CH2)5NH2}; linker N-5 via X1) [listing 1 of 2 here]
Ki (Vasopressin V2 receptor [1]): 7.2 nM
Ki (Vasopressin V2 receptor [2]): 30 nM

CCOc1ccc(C[C@H]2NC(=O)CC3(CCCCC3)SSC[C@@H](C(=O)N3CCC[C@H]3C(=O)NCCCCCN)NC(=O)[C@H](CC(N)=O)NC(=O)[C@H](C(C)C)NC(=O)[C@H](Cc3ccccc3)NC2=O)cc1 ([dY](Et)FVNCP-{NH(CH2)5NH2}; linker N-5 via X1) [listing 2 of 2 here]
ED300 (Rattus norvegicus): 0.027 mg/kg

CCOc1ccc(C[C@H]2NC(=O)CC3(CCCCC3)SSC[C@@H](C(=O)N3CCC[C@H]3C(=O)N[C@@H](CCCNC(=N)N)C(N)=O)NC(=O)[C@H](CC(N)=O)NC(=O)[C@H](C(C)C)NC(=O)[C@H](Cc3ccccc3)NC2=O)cc1 ([dY](Et)FVNCPR-NH2; linker N-5 via X1)
ED300 (Rattus norvegicus): 0.0092 mg/kg

CCOc1ccc(C[C@H]2NC(=O)CC3(CCCCC3)SSC[C@@H](C(=O)N3CCC[C@H]3C(=O)N[C@@H](CCCN=C(N)N)C(=O)NCC(N)=O)NC(=O)[C@H](CC(N)=O)NC(=O)[C@H](C(C)C)NC(=O)[C@H](Cc3ccccc3)NC2=O)cc1 ([dY](Et)FVNCPRG-NH2; linker N-5 via X1)
ED300 (Rattus norvegicus): 0.0112 mg/kg
